Consider three compounds from patent publication US12048306B1, “1,3-bis(naphthalen-1-yloxy)propan-2-one as an eco-friendly insecticidal agent against Spodoptera littoralis (boisd.)” (priority 2023, dated 2024).

Data set [1] concerns Spodoptera littoralis. Put plainly: Insecticidal leaf dip bioassay on S. littoralis larvae. Particulars: for Toxicity ratio: 72 hours, fenoxycarb's LC50 / the compound's LC50; for LC50: Spodoptera littoralis, foliar, laboratory strain, 72 hours of treatment.
Description: (§1) Five concentrations (200, 100, 50, 25, 12.5 ppm) were designed for this synthetic compound and the reference fenoxycarb's compound as the dynamic ingredients based on ppm via diluting the commercial formulation.
(§2) In this experiment, the synthetic compound was tested for its insecticidal bioactivity using the industry-standard leaf dip bioassay techniques. […] Until usage, the stocks were kept in a refrigerator. The target substance test results were noted & the concentrations needed to destroy 50% (LC50) of S. littoralis larvae were calculated. The target compound was employed in five different concentrations, & 0.1% Tween 80 was employed as a surfactant. Castor bean leaf discs (nine centimeters in diameter) were dipped in the concentration under test for ten seconds, then fed to 2th & 4th larvae, which were roughly the same size and housed in glass jars (five pound). Each action carried out 3 times with ten larvae each. The mortality equalized via Abbott's formula. Calculations of mortality setback line were measurably rummage via probity analysis. Harmfulness index was strongminded via sun equations. The mortality results of larval insect were estimated through employing probit analysis through a statistics (LDP-line) equation which estimate the LC50 values with 95% fiducially limits of lower, upper confidence limit and slope.
The test system of data set [2] is Spodoptera littoralis. Conditions: in vivo.
Description: as §1, §2
Another data set relates to aquatic insects. Particulars: highly toxic to very highly toxic; cited from earlier work.

Structures are written as SMILES. Converted amounts (≈) assume the structure as drawn. Where two headings read alike, the source gives them in different places.

Turning to `CCOC(=O)NCCOc1ccc(Oc2ccccc2)cc1` [Fenoxycarb, fenoxycarb, reference compound], the Toxicity ratio in the data set with Spodoptera littoralis [1] (2nd instar larvae) and in the data set with Spodoptera littoralis [1] (4th instar larvae) was 1 throughout. Moreover, the LC50 with Spodoptera littoralis [1] (72 h, 2nd instar larvae) came to 2.73 µg/mL (≈ 9.06 µM); in the data set with Spodoptera littoralis [1] (72 h, 4th instar larvae) it was 9.18 µg/mL (≈ 30.5 µM).
Take `O=C(COc1cccc2ccccc12)COc1cccc2ccccc12` [III, 1,3-bis(naphthalen-1-yloxy)propan-2-one]: in the data set with Spodoptera littoralis [1] (2nd and 4th instar larvae, 72 h, FIGS. 1A-1B, compared with the reference insecticide), the “insecticidal activity against Spodoptera littoralis” value is “active”. The Toxicity ratio is on record as 0.241 in the data set with Spodoptera littoralis [1] (2nd instar larvae) and 0.515 with Spodoptera littoralis [1] (4th instar larvae). Also, the median lethal concentration (LC50) in the data set with Spodoptera littoralis [1] (72 h, 2nd instar larvae) is 11.3 µg/mL (≈ 33.1 µM); with Spodoptera littoralis [1] (72 h, 4th instar larvae), about 17.8 µg/mL (≈ 52 µM); in the data set on Spodoptera littoralis [2] it was “about 11.32 mg/L”.
For `CCc1ccc(C(=O)NN(C(=O)c2cc(C)cc(C)c2)C(C)(C)C)cc1` [tebufenozide], the LC50 in the data set on aquatic insects is 100 to 1000 µg/mL.
